Measurements published in patent US11071300B2, “Pesticidally active pyrazole derivatives” (SYNGENTA PARTICIPATIONS AG, priority 2017, dated 2021).

Legend:
Assay type in all cases: in vivo
[1] = test system: Tetranychus urticae; test: Tetranychus urticae (two-spotted spider mite) leaf disc test; conditions: foliar, 192 h, application rate 200 ppm, bean leaf discs sprayed, 8 days after infestation, read-out: control (mortality on mixed population, mobile stages)
Method: Tetranychus urticae (Two-Spotted Spider Mite):
Bean leaf discs on agar in 24-well microtiter plates were sprayed with aqueous test solutions prepared from 10′000 ppm DMSO stock solutions. After drying the leaf discs were infested with a mite population of mixed ages. The samples were assessed for mortality on mixed population (mobile stages) 8 days after infestation.

[2] = test system: Diabrotica Balteata; test: Diabrotica balteata (corn root worm) maize sprout test; conditions: 96 h, application rate 200 ppm, maize sprouts sprayed, L2 larvae, 4 days after infestation, read-out: control (mortality and growth inhibition)
Method: Diabrotica Balteata, (Corn Root Worm)
Maize sprouts, placed on an agar layer in 24-well microtiter plates were treated with aqueous test solutions prepared from 10′000 ppm DMSO stock solutions by spraying. After drying, the plates were infested with L2 larvae (6 to 10 per well). The samples were assessed for mortality and growth inhibition in comparison to untreated samples 4 days after infestation.

[3] = test system: Thrips tabaci; test: Thrips tabaci (onion thrips) leaf disc test; conditions: foliar, 144 h, application rate 200 ppm, sunflower leaf discs sprayed, mixed ages, 6 days after infestation, read-out: control (mortality)
Method: Thrips tabaci (Onion Thrips):
Sunflower leaf discs were placed on agar in 24-well microtiter plates and sprayed with aqueous test solutions prepared from 10′000 ppm DMSO stock solutions. After drying the leaf discs were infested with a thrips population of mixed ages. The samples were assessed for mortality 6 days after infestation.

[4] = test system: Euschistus heros; test: Euschistus heros (neotropical brown stink bug) soybean leaf test; conditions: 120 h, application rate 200 ppm, soybean leaves sprayed, N2 nymphs, 5 days after infestation, read-out: control (mortality and growth inhibition)
Method: Euschistus heros (Neotropical Brown Stink Bug):
Soybean leaves on agar in 24-well microtiter plates were sprayed with aqueous test solutions prepared from 10′000 ppm DMSO stock solutions. After drying the leaves were infested with N2 nymphs. The samples were assessed for mortality and growth inhibition in comparison to untreated samples 5 days after infestation.

[5] = test system: Spodoptera littoralis; test: Spodoptera littoralis (Egyptian cotton leaf worm) leaf disc test; conditions: foliar, 72 h, application rate 200 ppm, cotton leaf discs sprayed, L1 larvae, 3 days after infestation, read-out: control (at least one of mortality, anti-feedant effect, growth inhibition)
Procedure, shortened: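 Cotton leaf discs on agar were sprayed with aqueous dilutions of 10′000 ppm DMSO stocks, dried and infested with five L1 larvae. Mortality, anti-feedant effect and growth inhibition were scored against untreated samples 3 days after infestation. Control = any of these higher than untreated.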

[6] = test system: Myzus persicae; test: Myzus persicae (green peach aphid) leaf disc test; conditions: foliar, 144 h, application rate 200 ppm, sunflower leaf discs sprayed, mixed ages, 6 DAT, read-out: control (mortality)
Method: Myzus persicae (Green Peach Aphid):
Sunflower leaf discs were placed on agar in a 24-well microtiter plate and sprayed with test solutions at an application rate of 200 ppm. After drying, the leaf discs were infested with an aphid population of mixed ages. After an incubation period of 6 DAT, samples were checked for mortality.

[7] = test system: Plutella xylostella; test: Plutella xylostella (diamond back moth) artificial diet test; conditions: 120 h, application rate 200 ppm, artificial diet, L2 larvae, 5 days after infestation, read-out: control (mortality and growth inhibition)
Method: Plutella xylostella (Diamond Back Moth):
24-well microtiter plates with artificial diet were treated with aqueous test solutions prepared from 10′000 ppm DMSO stock solutions by pipetting. After drying, the plates were infested with L2 larvae (10 to 15 per well). The samples were assessed for mortality and growth inhibition in comparison to untreated samples 5 days after infestation.

C#CCN(C(=O)c1cc(-c2cnn(-c3c(C(F)(F)F)c(OS(=O)(=O)C(F)(C(F)(F)F)C(F)(F)F)nn3C)c2)ccc1Cl)C1(C#N)CC1 [Compound 50, [5-[4-[4-chloro-3-[(1-cyanocyclopropyl)-prop-2-ynyl-carbamoyl]phenyl]pyrazol-1-yl]-1-methyl-4-(trifluoromethyl)pyrazol-3-yl] 1,1,1,2,3,3,3-heptafluoropropane-2-sulfonate]
≥ 80%: mortality at 200 ppm [1] | mortality at 200 ppm [2] | mortality at 200 ppm [3] | mortality at 200 ppm [4] | percent control (mortality, anti-feedant effect or growth inhibition) at 200 ppm [5] | mortality at 200 ppm [6] | mortality at 200 ppm [7]

CN(C(=O)c1cc(-c2cnn(-c3c(C(F)(F)F)c(OS(=O)(=O)C(F)(C(F)(F)F)C(F)(F)F)nn3C)c2)cnc1Cl)C1(C#N)CC1 [Compound 25, [5-[4-[6-chloro-5-[(1-cyanocyclopropyl)-methyl-carbamoyl]-3-pyridyl]pyrazol-1-yl]-1-methyl-4-(trifluoromethyl)pyrazol-3-yl] 1,1,1,2,3,3,3-heptafluoropropane-2-sulfonate]
≥ 80%: mortality at 200 ppm [1] | mortality at 200 ppm [2] | mortality at 200 ppm [3] | mortality at 200 ppm [4] | percent control (mortality, anti-feedant effect or growth inhibition) at 200 ppm [5] | mortality at 200 ppm [6] | mortality at 200 ppm [7]

Cn1nc(OS(=O)(=O)C(F)(C(F)(F)F)C(F)(F)F)c(C(F)(F)F)c1-n1cc(-c2ccc(Cl)c(C(=O)NC3CC3)c2)cn1 [Compound 5, [5-[4-[4-chloro-3-(cyclopropylcarbamoyl)phenyl]pyrazol-1-yl]-1-methyl-4-(trifluoromethyl)pyrazol-3-yl] 1,1,1,2,3,3,3-heptafluoropropane-2-sulfonate]
≥ 80%: mortality at 200 ppm [1] | mortality at 200 ppm [2] | mortality at 200 ppm [3] | mortality at 200 ppm [4] | percent control (mortality, anti-feedant effect or growth inhibition) at 200 ppm [5] | mortality at 200 ppm [6] | mortality at 200 ppm [7]

Cn1nc(OS(=O)(=O)C(F)(C(F)(F)F)C(F)(F)F)c(C(F)(F)F)c1-n1cc(-c2ccc(Cl)c(C(=O)N(CC#N)C3(C#N)CC3)c2)cn1 [Compound 49, [5-[4-[4-chloro-3-[(1-cyanocyclopropyl)-(cyanomethyl)carbamoyl]phenyl]pyrazol-1-yl]-1-methyl-4-(trifluoromethyl)pyrazol-3-yl] 1,1,1,2,3,3,3-heptafluoropropane-2-sulfonate]
≥ 80%: mortality at 200 ppm [1] | mortality at 200 ppm [2] | mortality at 200 ppm [3] | mortality at 200 ppm [4] | percent control (mortality, anti-feedant effect or growth inhibition) at 200 ppm [5] | mortality at 200 ppm [6] | mortality at 200 ppm [7]

CCN(C(=O)c1cc(-c2cnn(-c3c(C(F)(F)F)c(OS(=O)(=O)C(F)(C(F)(F)F)C(F)(F)F)nn3C)c2)ccc1Cl)C1(C#N)CC1 [Compound 45, [5-[4-[4-chloro-3-[(1-cyanocyclopropyl)-ethyl-carbamoyl]phenyl]pyrazol-1-yl]-1-methyl-4-(trifluoromethyl)pyrazol-3-yl] 1,1,1,2,3,3,3-heptafluoropropane-2-sulfonate]
≥ 80%: mortality at 200 ppm [1] | mortality at 200 ppm [2] | mortality at 200 ppm [3] | mortality at 200 ppm [4] | percent control (mortality, anti-feedant effect or growth inhibition) at 200 ppm [5] | mortality at 200 ppm [6] | mortality at 200 ppm [7]

Cn1nc(OS(=O)(=O)C(F)(C(F)(F)F)C(F)(F)F)c(C(F)(F)F)c1-c1cc(-c2ccc(Cl)c(C(=O)NC3(C#N)CC3)c2)on1 [Compound 36, [5-[5-[4-chloro-3-[(1-cyanocyclopropyl)carbamoyl]phenyl]isoxazol-3-yl]-1-methyl-4-(trifluoromethyl)pyrazol-3-yl] 1,1,1,2,3,3,3-heptafluoropropane-2-sulfonate]
≥ 80%: mortality at 200 ppm [1] | mortality at 200 ppm [2] | mortality at 200 ppm [3] | mortality at 200 ppm [4] | percent control (mortality, anti-feedant effect or growth inhibition) at 200 ppm [5] | mortality at 200 ppm [6] | mortality at 200 ppm [7]

COCN(C(=O)c1cc(-c2cnn(-c3c(C(F)(F)F)c(OS(=O)(=O)C(F)(C(F)(F)F)C(F)(F)F)nn3C)c2)ccc1Cl)C1(C#N)CC1 [Compound 48, [5-[4-[4-chloro-3-[(1-cyanocyclopropyl)-(methoxymethyl)carbamoyl]phenyl]pyrazol-1-yl]-1-methyl-4-(trifluoromethyl)pyrazol-3-yl] 1,1,1,2,3,3,3-heptafluoropropane-2-sulfonate]
≥ 80%: mortality at 200 ppm [1] | mortality at 200 ppm [2] | mortality at 200 ppm [3] | mortality at 200 ppm [4] | percent control (mortality, anti-feedant effect or growth inhibition) at 200 ppm [5] | mortality at 200 ppm [6] | mortality at 200 ppm [7]

CC(=O)N(C(=O)c1cc(-c2cnn(-c3c(C(F)(F)F)c(OS(=O)(=O)C(F)(C(F)(F)F)C(F)(F)F)nn3C)c2)ccc1Cl)C1(C#N)CC1 [Compound 46, [5-[4-[3-[acetyl-(1-cyanocyclopropyl)carbamoyl]-4-chloro-phenyl]pyrazol-1-yl]-1-methyl-4-(trifluoromethyl)pyrazol-3-yl] 1,1,1,2,3,3,3-heptafluoropropane-2-sulfonate]
≥ 80%: mortality at 200 ppm [1] | mortality at 200 ppm [2] | mortality at 200 ppm [3] | mortality at 200 ppm [4] | percent control (mortality, anti-feedant effect or growth inhibition) at 200 ppm [5] | mortality at 200 ppm [6] | mortality at 200 ppm [7]

Cn1nc(OS(=O)(=O)C(F)(C(F)(F)F)C(F)(F)F)c(C(F)(F)F)c1-n1cc(-c2ccc(Cl)c(C(=O)NC3(C#N)CC3)c2)cn1 [Compound 2, [5-[4-[4-chloro-3-[(1-cyanocyclopropyl)carbamoyl]phenyl]pyrazol-1-yl]-1-methyl-4-(trifluoromethyl)pyrazol-3-yl] 1,1,1,2,3,3,3-heptafluoropropane-2-sulfonate]
≥ 80%: mortality at 200 ppm [1] | mortality at 200 ppm [2] | mortality at 200 ppm [3] | mortality at 200 ppm [4] | percent control (mortality, anti-feedant effect or growth inhibition) at 200 ppm [5] | mortality at 200 ppm [6] | mortality at 200 ppm [7]

CCN(C(=O)c1cc(-c2cc(-c3c(C(F)(F)F)c(OS(=O)(=O)C(F)(C(F)(F)F)C(F)(F)F)nn3C)no2)ccc1Cl)C1CC1 [Compound 35, [5-[5-[4-chloro-3-[cyclopropyl(ethyl)carbamoyl]phenyl]isoxazol-3-yl]-1-methyl-4-(trifluoromethyl)pyrazol-3-yl] 1,1,1,2,3,3,3-heptafluoropropane-2-sulfonate]
≥ 80%: mortality at 200 ppm [1] | mortality at 200 ppm [2] | mortality at 200 ppm [3] | mortality at 200 ppm [4] | percent control (mortality, anti-feedant effect or growth inhibition) at 200 ppm [5] | mortality at 200 ppm [6] | mortality at 200 ppm [7]
